These results are taken from PubChem BioAssay AID248 (DTP/NCI, 2004).

Where “and” joins values, the source holds several entries; their conditions need not be identical. Equal entries are not always repeated. Toxic doses and inconclusive results are not listed.

The test system of this assay is L1210 leukemia ip in BDF1 mice, survival T/C. In words: NCI In Vivo Anticancer Drug Screen. Data for tumor model L1210 Leukemia (intraperitoneal) in B6D2F1 (BDF1) mice. Conditions: endpoint: mean survival time, higher = longer survival. An outline of the steps:
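Read-out is survival time, reported as the treated-group measurement over the vehicle-control measurement.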

Where [1] appears, read: dose: 100.0 mg/kg/injection, schedule: Q01DX001 (ip), vehicle: saline.
[2] abbreviates: dose: 100.0 mg/kg/injection, schedule: Q04DX003 (ip), vehicle: saline.
The mark [3] stands for this setting: dose: 200.0 mg/kg/injection, schedule: Q01DX001 (ip), vehicle: saline.
[4] abbreviates: dose: 200.0 mg/kg/injection, schedule: Q01DX009 (ip), vehicle: saline.
The mark [5] stands for this setting: dose: 200.0 mg/kg/injection, schedule: Q04DX003 (ip), vehicle: saline.
Setting [6] is: dose: 400.0 mg/kg/injection, schedule: Q01DX001 (ip), vehicle: saline.
Where [7] appears, read: dose: 400.0 mg/kg/injection, schedule: Q01DX009 (ip), vehicle: saline.
The mark [8] stands for this setting: dose: 100.0 mg/kg/injection, schedule: Q04DX003 (ip), vehicle: Klucel (hydroxypropylcellulose) (HPC).
[9] abbreviates: dose: 200.0 mg/kg/injection, schedule: Q04DX003 (ip), vehicle: Klucel (hydroxypropylcellulose) (HPC).
The mark [10] stands for this setting: dose: 400.0 mg/kg/injection, schedule: Q04DX003 (ip), vehicle: Klucel (hydroxypropylcellulose) (HPC).
Setting [11] is: dose: 100.0 mg/kg/injection, schedule: Q01DX009 (ip), vehicle: saline with Tween-80.
The mark [12] stands for this setting: dose: 200.0 mg/kg/injection, schedule: Q01DX009 (ip), vehicle: saline with Tween-80.
Where [13] appears, read: dose: 400.0 mg/kg/injection, schedule: Q01DX009 (ip), vehicle: saline with Tween-80.
Where [14] appears, read: dose: 100.0 mg/kg/injection, schedule: Q01DX009 (ip), vehicle: Klucel (hydroxypropylcellulose) (HPC).
The mark [15] stands for this setting: dose: 100.0 mg/kg/injection, schedule: Q04DX003 (ip), vehicle: saline with Tween-80.
The mark [16] stands for this setting: dose: 200.0 mg/kg/injection, schedule: Q01DX009 (ip), vehicle: Klucel (hydroxypropylcellulose) (HPC).
Where [17] appears, read: dose: 200.0 mg/kg/injection, schedule: Q04DX003 (ip), vehicle: saline with Tween-80.
Setting [18] is: dose: 100.0 mg/kg/injection, schedule: Q01DX001 (ip), vehicle: saline with Tween-80.
The mark [19] stands for this setting: dose: 200.0 mg/kg/injection, schedule: Q01DX001 (ip), vehicle: saline with Tween-80.
Where [20] appears, read: dose: 400.0 mg/kg/injection, schedule: Q01DX001 (ip), vehicle: saline with Tween-80.

Turning to `CC(=O)OC12C=CC(C(C)=C1)C1C(=O)C=CC(=O)C12` (stereo not given), the T/C under setting [1] is 103 % of control; the T/C (dose: 100.0 mg/kg/injection, schedule: Q01DX009 (ip), vehicle: saline) was 98 % of control; the T/C under setting [2] is 103 % of control; the T/C under setting [3] was 97 % of control; the T/C under setting [4] was 89 % of control; the T/C under setting [5] is 103 % of control. Also, the T/C under setting [6] is 97 % of control; the T/C under setting [7] was 90 % of control; the T/C (dose: 400.0 mg/kg/injection, schedule: Q04DX003 (ip), vehicle: saline) was 87 % of control.
Take `O=C1C(Cl)=C(Cl)C(=O)N1CCCCCCN1C(=O)C(Cl)=C(Cl)C1=O`: the T/C under setting [8] is 92 % of control, the T/C under setting [9] was 87 % of control and the T/C under setting [10] was 92 % of control.
`O=C1OC(=O)N2N=CC=CC12` (stereo not given): the T/C by setting is: under setting [11], 102 % of control; under setting [12], 100 % of control; under setting [13], 96 % of control.
As for `O=C(/C=C\c1ccc2c(c1)OCO2)/C=C/c1ccc2c(c1)OCO2`, the T/C reads like this: under setting [14], 97 % of control; under setting [8], 92 % of control; under setting [15], 97 % of control; under setting [16], 88 % of control; under setting [9], 101 % of control; under setting [17], 94 % of control. The T/C (dose: 400.0 mg/kg/injection, schedule: Q01DX009 (ip), vehicle: Klucel (hydroxypropylcellulose) (HPC)) was 87 % of control; the T/C under setting [10] is 94 % of control; the T/C (dose: 400.0 mg/kg/injection, schedule: Q04DX003 (ip), vehicle: saline with Tween-80) was 90 % of control.
`Cc1ccc(O)c(C)n1`: the T/C (dose: 66.0 mg/kg/injection, schedule: Q01DX009 (ip), vehicle: saline) is 98 % of control; the T/C (dose: 150.0 mg/kg/injection, schedule: Q01DX009 (ip), vehicle: saline) was 97 % of control; the T/C under setting [4] is 93 % of control; the T/C under setting [7] was 102 % of control.
On to `CN(C)CC/C(=N\Nc1ccc([N+](=O)[O-])cc1[N+](=O)[O-])c1ccccc1`, for which the T/C is 94 % of control under setting [18], 92 % of control under setting [19] and 92 % of control under setting [20].
As to `O=C(Nc1ccc([N+](=O)[O-])cc1Cl)Oc1ccc2ccccc2c1`, the T/C is 92 % of control under setting [14]; 100 % of control under setting [8]; 87 % of control under setting [16]; 97 % of control under setting [9]; 100 % of control under setting [10].
For the molecule `Cc1ccc(/C=N/NC(N)=S)nn1`, the T/C by setting is: (dose: 100.0 mg/kg/injection, schedule: Q04DX002 (ip), vehicle: saline) 117 % of control; (dose: 200.0 mg/kg/injection, schedule: Q04DX002 (ip), vehicle: saline) 98 % of control.
`O=c1cc(/C=N\Nc2ccccc2)[nH]c(=O)[nH]1`: the T/C was 93 % of control (dose: 50.0 mg/kg/injection, schedule: Q01DX001 (ip), vehicle: saline); 96 % of control under setting [1]; 93 % of control under setting [3]; 96 % of control under setting [6].
For `NC(N)=Nc1ccc(C(=O)Oc2ccc([N+](=O)[O-])cc2CN2CCCCC2)cc1`, the T/C runs as follows: (dose: 0.5 mg/kg/injection, schedule: Q04DX003 (ip), vehicle: water) 102 % of control; (dose: 1.0 mg/kg/injection, schedule: Q04DX003 (ip), vehicle: water) 110 % of control; (dose: 2.0 mg/kg/injection, schedule: Q04DX003 (ip), vehicle: water) 96 % of control; (dose: 3.12 mg/kg/injection, schedule: Q01DX009 (ip), vehicle: water) 93 % of control; (dose: 3.12 mg/kg/injection, schedule: Q04DX003 (ip), vehicle: water) 105 % of control; (dose: 4.0 mg/kg/injection, schedule: Q04DX003 (ip), vehicle: water) 102 % of control. For the same molecule, the T/C is, setting by setting: (dose: 6.25 mg/kg/injection, schedule: Q01DX009 (ip), vehicle: water) 96 % of control; (dose: 12.5 mg/kg/injection, schedule: Q01DX009 (ip), vehicle: water) 101 % of control; (dose: 12.5 mg/kg/injection, schedule: Q04DX003 (ip), vehicle: water) 108 % of control.
In the case of `CCN(CC)P(=O)(N1CC1)N1CC1`, the T/C is 109 % of control (dose: 0.75 mg/kg/injection, schedule: Q01DX Z (ip), vehicle: saline); 121 % of control (dose: 1.15 mg/kg/injection, schedule: Q01DX Z (ip), vehicle: saline); 106 % of control (dose: 2.0 mg/kg/injection, schedule: Q01DX Z (ip), vehicle: saline); 124 % of control and 215 % of control (dose: 2.6 mg/kg/injection, schedule: Q01DX Z (ip), vehicle: saline); 151 % of control (dose: 4.0 mg/kg/injection, schedule: Q01DX Z (ip), vehicle: saline); 213 % of control (dose: 9.0 mg/kg/injection, schedule: Q01DX Z (ip), vehicle: saline). Moreover, the T/C (dose: 14.0 mg/kg/injection, schedule: Q01DX Z (ip), vehicle: saline) was 88 % of control and 91 % of control.
Consider `COc1ccc(OC)c2c1C(=O)c1ccccc1C2=O`, for which the T/C (dose: 25.0 mg/kg/injection, schedule: Q01DX009 (ip), vehicle: saline with Tween-80) was 107 % of control; the T/C (dose: 50.0 mg/kg/injection, schedule: Q01DX001 (ip), vehicle: carboxymethylcellulose (CMC)) is 102 % of control; the T/C (dose: 50.0 mg/kg/injection, schedule: Q01DX009 (ip), vehicle: saline with Tween-80) is 104 % of control; the T/C (dose: 100.0 mg/kg/injection, schedule: Q01DX001 (ip), vehicle: carboxymethylcellulose (CMC)) is 108 % of control; the T/C under setting [11] is 104 % of control; the T/C (dose: 200.0 mg/kg/injection, schedule: Q01DX001 (ip), vehicle: carboxymethylcellulose (CMC)) is 102 % of control. Also, the T/C is 107 % of control under setting [12]; 113 % of control (dose: 400.0 mg/kg/injection, schedule: Q01DX001 (ip), vehicle: carboxymethylcellulose (CMC)); 111 % of control under setting [13].
In the case of `FC(F)C(F)(F)C(F)(F)C(F)(F)C(F)(F)C(F)(F)C(F)(F)F`, the T/C under setting [1] was 97 % of control, the T/C under setting [3] was 100 % of control and the T/C under setting [6] was 95 % of control.
With `COc1ccc2ccc(=O)oc2c1CC=C(C)C`, the T/C was 98 % of control (dose: 100.0 mg/kg/injection, schedule: Q01DX001 (ip), vehicle: other); 93 % of control (dose: 200.0 mg/kg/injection, schedule: Q01DX001 (ip), vehicle: other); 101 % of control (dose: 400.0 mg/kg/injection, schedule: Q01DX001 (ip), vehicle: other).
In the case of `CCCCCCCCCC(=O)N(CCC)CCC`, the T/C under setting [15] was 91 % of control and the T/C under setting [17] is 88 % of control.
In the case of `CNc1nc(Cl)nc(Cl)n1`, the T/C is, setting by setting: under setting [2], 87 % of control; under setting [5], 87 % of control.
On to `COC(=O)C(Cc1[nH]cnc1N=Nc1ccc(Br)cc1)NC(C)=O` (stereo not given), for which the T/C under setting [18] was 107 % of control, the T/C under setting [19] is 96 % of control and the T/C under setting [20] was 96 % of control.
